Laboratory results: ChEMBL document CHEMBL5550165, “Novel quinoxaline analogs as telomeric G-quadruplex ligands exert antitumor effects related to enhanced immunomodulation” (Eur J Med Chem, 2024)
Active and inactive are the calls of the source. No cut-off for these calls is given here.

Legend:
Quadruplex DNA = assay: Binding affinity to KRAS G-quadruplex telomeric DNA (unknown origin) assessed as […] by measuring melting temperature by FRET assay; format: nucleic-acid assay
4T1 [1] = assay: Antitumor activity against mouse 4T1 cells implanted in BALB/c mouse assessed as upregulation of gamma-H2AX expression in tumor at 10 mg/kg,ip every other day for 14 days by immunohistochemistry; format: functional, organism-based; conditions: time 14.0 day
MDA-MB-231 = assay: Induction of cell cycle arrest in human MDA-MB-231 cells assessed as accumulation of cells at G2/M phase at 4 uM incubated for 24 hrs by RNase/PI staining based flow cytometry (reference value: 11.3 %); format: functional
[2] = Toxicity in BALB/c mouse implanted with mouse 4T1 cells assessed as histopathological change in heart at 10 mg/kg,ip every other day for 14 days by hematoxylin and eosin staining analysis; format: organism-based; conditions: in vivo, 336 h, time 14 day
4T1 [3] = assay: Antitumor immunity against mouse 4T1 cells implanted in BALB/c mouse assessed as increase in serum TNF-alpha level at 10 mg/kg,ip every other day for 14 days by ELISA; format: functional, organism-based; conditions: time 14.0 day

SMILES: CN(C)CCN(C)c1ccc(-c2nc3ccc(C(F)(F)F)cc3nc2-c2ccc(N(C)CCN(C)C)cc2)cc1
- Activity (Quadruplex DNA): Active
- Activity (4T1 [1]): Active
- Activity (MDA-MB-231): 20.9%
- Activity [2]: Non-Toxic
- Activity (4T1 [3]): Active
